Experimental data from PMC6934184, “Selective DNA-PKcs inhibition extends the therapeutic index of localized radiotherapy and chemotherapy” (The Journal of Clinical Investigation, 2019).

Target: T1, ACVR1B (ALK4) (Homo sapiens, UniProt P36896)
T1 construct: purchased Thermo Fisher Scientific (Life Technologies) SelectScreen
Assay: SelectScreen Z'LYTE
Assay type: biochemical
Summary of the method: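 SelectScreen broad panel; activity (Z'LYTE, Adapta) plus binding formats. ATP: Km app for CSF1R Z'LYTE; 10 for CAMK1 Adapta. Readout = % per kinase.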

T1 sequence (P36896 24-505): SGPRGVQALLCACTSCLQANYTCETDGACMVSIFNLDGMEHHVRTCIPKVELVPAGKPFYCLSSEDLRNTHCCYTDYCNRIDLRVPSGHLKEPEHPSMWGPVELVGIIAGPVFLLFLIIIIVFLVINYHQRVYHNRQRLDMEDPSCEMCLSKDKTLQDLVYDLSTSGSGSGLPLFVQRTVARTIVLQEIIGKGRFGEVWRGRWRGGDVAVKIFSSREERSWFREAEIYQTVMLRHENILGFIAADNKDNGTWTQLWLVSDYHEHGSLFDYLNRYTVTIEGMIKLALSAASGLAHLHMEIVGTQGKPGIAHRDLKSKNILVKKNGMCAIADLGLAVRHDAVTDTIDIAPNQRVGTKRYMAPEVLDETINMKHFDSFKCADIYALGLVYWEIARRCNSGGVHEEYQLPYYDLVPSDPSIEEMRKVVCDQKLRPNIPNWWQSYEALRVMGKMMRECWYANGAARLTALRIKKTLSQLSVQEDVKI

`CN(C(=O)CN1CCOCC1)c1ccc2sc3c(-c4cccc5c(=O)cc(N6CC7CCC(C6)O7)oc45)cccc3c2c1` [NU5455] was tested, and the inhibition at 1 µM was 2%.
